Data from patent US20200338082A1, “FORMULATIONS, SYSTEMS, AND METHODS FOR THERAPEUTIC TREATMENT” (priority 2017, published 2020).
Where a name gives a salt, the structure may show the parent alone.

Assay: Solubility of chemotherapeutic agents in solubilizing excipients and excipient blends
Format: physicochemical
Details: all organic blends: PEG400/Tween; Cremophor or Solutol/PEG400; Cremophor or Solutol/DMA or ethanol/PEG400
Protocol: Eleven compounds and seven solubilizing excipients were obtained from commercial sources (see Table 1). […] The excipients listed comprise all of the organic solubilizers currently approved by the FDA for intravenous use in human patients.
Concentration targets were calculated based on providing the same amount of drug used clinically over the time period typically allotted for each compound (see Table 2 for target concentrations). Each solubilizing mixture was started at the target concentration, and if ineffective, diluted 2-fold successively until solubilization was achieved (sometimes with the help of gentle heating, mixing, or sonication), or until the solution was tested at 1:16 the target concentration, in which case further testing was halted (this concentration is approximately what would be required to hit a target dose with a daily cartridge exchange in a delivery device).
Three primary formulation combinations were tested in this example: • Solvent and co-solvent systems (PEG400 and Tween® 20 or Tween® 80) • Surfactant and co-solvent systems (Cremophor® or Solutol® and PEG400) • Surfactant and solvent/co-solvent systems (Cremophor® or Solutol® and DMA or ethanol and PEG400) For the first two combinations, mixtures were made upfront and solubility of each compound tested within. For the third, the compound was pre-dissolved in either DMA or ethanol and the remaining components then added as a mixture.

| Structure (SMILES) | solubility in organic blends tested |
| --- | --- |
| CCc1c2c(nc3ccc(OC(=O)N4CCC(N5CCCCC5)CC4)cc13)-c1cc3c(c(=O)n1C2)COC(=O)[C@]3(O)CC [irinotecan] | insoluble in all of the organic blends tested |
| Nc1ccn([C@@H]2O[C@H](CO)[C@@H](O)C2(F)F)c(=O)n1 [gemcitabine hydrochloride] | insoluble in all of the organic blends tested |
| N.N.O=C([O-])C1(C(=O)[O-])CCC1.[Pt+2] [carboplatin] | insoluble in all of the organic blends tested |
| O=c1[nH]cc(F)c(=O)[nH]1 [5-FU, fluorouracil] | insoluble in all of the organic blends tested |

Same assay, conditions: compound pre-dissolved in dimethylacetamide (DMA)

| solubility in DMA | Structure (SMILES) |
| --- | --- |
| sufficient to solubilize | CC[C@]1(O)C[C@@H]2CN(CCc3c([nH]c4ccccc34)[C@@](C(=O)OC)(c3cc4c(cc3OC)N(C)[C@H]3[C@@](O)(C(=O)OC)[C@H](OC(C)=O)[C@]5(CC)C=CCN6CC[C@]43[C@@H]65)C2)C1 [vinblastine] |
| sufficient to solubilize | CN(Cc1cnc2nc(N)nc(N)c2n1)c1ccc(C(=O)N[C@@H](CCC(=O)O)C(=O)O)cc1 [methotrexate] |
| sufficient to solubilize | COc1cc([C@@H]2c3cc4c(cc3[C@@H](O[C@@H]3O[C@@H]5CO[C@@H](C)O[C@H]5[C@H](O)[C@H]3O)[C@H]3COC(=O)[C@H]23)OCO4)cc(OC)c1O [etoposide] |
| sufficient to solubilize | CC(=O)O[C@@]12CO[C@@H]1C[C@H](O)[C@@]1(C)C(=O)[C@H](O)C3=C(C)[C@@H](OC(=O)[C@H](O)[C@@H](NC(=O)OC(C)(C)C)c4ccccc4)C[C@@](O)([C@@H](OC(=O)c4ccccc4)[C@H]21)C3(C)C [docetaxel] |
| sufficient to solubilize | CC(=O)O[C@H]1C(=O)[C@@]2(C)[C@H]([C@H](OC(=O)c3ccccc3)[C@]3(O)C[C@H](OC(=O)[C@H](O)[C@@H](NC(=O)c4ccccc4)c4ccccc4)C(C)=C1C3(C)C)[C@]1(OC(C)=O)CO[C@@H]1C[C@@H]2O [paclitaxel] |

Same assay, conditions: free base versus hydrochloride salt

| solubility of free base instead of the salt | Structure (SMILES) |
| --- | --- |
| increased solubility | Nc1ccn([C@@H]2O[C@H](CO)[C@@H](O)C2(F)F)c(=O)n1 [gemcitabine] |
